Test results as given in PubChem BioAssay (NCI).
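All cell lines were grown in 96-well plates and treated with compound for 48 hours. Here, GI50 denotes the concentration required for 50% inhibition of growth. TGI: concentration producing complete growth inhibition.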

Key:
Experiment in all cases: NCI tumour cell line growth inhibition, 48 h
[1] = system: UACC-62 melanoma
[2] = system: SNB-19 CNS
[3] = system: SN12C renal
[4] = system: HOP-92 NSCLC
[5] = system: RXF 393 renal
[6] = system: ACHN renal
[7] = system: A549 NSCLC
[8] = system: UACC-257 melanoma
[9] = system: OVCAR-8 ovarian
[10] = system: SF-539 CNS
[11] = system: MOLT-4 leukemia
[12] = system: SF-295 CNS
[13] = system: SF-268 CNS
[14] = system: DU-145 prostate
[15] = system: OVCAR-4 ovarian
[16] = system: 786-0 renal
[17] = system: PC-3 prostate
[18] = system: HCT-15 colon
[19] = system: HT29 colon
[20] = system: KM12 colon
[21] = system: NCI-H522 lung
[22] = system: CAKI-1 renal
[23] = system: NCI-H460 lung
[24] = system: SK-OV-3 ovarian
[25] = system: NCI/ADR-RES ovarian
[26] = system: MCF7 breast
[27] = system: TK-10 renal
[28] = system: MALME-3M melanoma
[29] = system: HL-60(TB) leukemia
[30] = system: OVCAR-5 ovarian
[31] = system: A498 renal
[32] = system: HS 578T breast
[33] = system: COLO 205 colon
[34] = system: M14 melanoma
[35] = system: HOP-62 NSCLC
[36] = system: SK-MEL-2 melanoma
[37] = system: LOX IMVI melanoma
[38] = system: SNB-75 CNS
[39] = system: T-47D breast
[40] = system: IGROV1 ovarian
[41] = system: MDA-N
[42] = system: SK-MEL-5 melanoma
[43] = system: HCT-116 colon
[44] = system: CCRF-CEM leukemia
[45] = system: UO-31 renal
[46] = system: EKVX NSCLC
[47] = system: NCI-H226 lung
[48] = system: MDA-MB-231 breast
[49] = system: NCI-H23 lung
[50] = system: U251 CNS
[51] = system: MDA-MB-435
[52] = system: OVCAR-3 ovarian
[53] = system: HCC-2998 colon
[54] = system: K-562 leukemia
[55] = system: RPMI-8226 leukemia
[56] = system: SW-620 colon
[57] = system: SK-MEL-28 melanoma
[58] = system: BT-549 breast
[59] = system: SR leukemia

CCOC(=O)C(=[N+]=[N-])C(=O)C1(C(=O)OCC)CCN(C(=O)c2ccccc2)C1=O (centres undefined)
TGI [1]: > 100 µM | TGI [2]: > 100 µM | TGI [3]: > 100 µM | TGI [4]: > 100 µM | TGI [5]: > 100 µM | TGI [6]: > 100 µM | TGI [7]: > 100 µM | TGI [8]: > 100 µM | TGI [9]: > 100 µM | TGI [10]: > 100 µM | TGI [11]: > 100 µM | TGI [12]: > 100 µM | TGI [13]: > 100 µM | TGI [14]: > 100 µM | TGI [15]: > 100 µM | TGI [16]: > 100 µM | TGI [17]: > 100 µM | TGI [18]: > 100 µM | TGI [19]: > 100 µM | TGI [20]: > 100 µM | TGI [21]: > 100 µM | TGI [22]: > 100 µM | TGI [23]: > 100 µM | TGI [24]: > 100 µM | TGI [25]: > 100 µM | TGI [26]: > 100 µM | TGI [27]: > 100 µM | TGI [28]: > 100 µM | TGI [29]: > 100 µM | TGI [30]: > 100 µM | TGI [31]: > 100 µM | TGI [32]: > 100 µM | TGI [33]: > 100 µM | TGI [34]: > 100 µM | TGI [35]: > 100 µM | TGI [36]: > 100 µM | TGI [37]: > 100 µM | TGI [38]: > 100 µM | TGI [39]: > 100 µM | TGI [40]: > 100 µM | TGI [41]: > 100 µM | TGI [42]: > 100 µM | TGI [43]: > 100 µM | TGI [44]: > 100 µM | TGI [45]: > 100 µM | TGI [46]: > 100 µM | TGI [47]: > 100 µM | TGI [48]: > 100 µM | TGI [49]: > 100 µM

COc1ccc(/C(C#N)=C/c2ccccc2OC)cc1
GI50 [1]: 7.36 µM | TGI [1]: > 100 µM | GI50 [2]: 30.3 µM | TGI [2]: > 100 µM | GI50 [3]: 21.1 µM | TGI [3]: > 100 µM | GI50 [4]: 4.57 µM | TGI [4]: 70.8 µM | GI50 [5]: 5.4 µM | TGI [5]: 27.4 µM | GI50 [6]: 32.1 µM | TGI [6]: > 100 µM | GI50 [50]: 4.63 µM | TGI [50]: 78.4 µM | GI50 [7]: 6.19 µM | TGI [7]: > 100 µM | GI50 [8]: 12.4 µM | TGI [8]: > 100 µM | GI50 [9]: 25.2 µM | TGI [9]: > 100 µM | GI50 [10]: 20.5 µM | TGI [10]: > 100 µM | GI50 [11]: 5.49 µM | TGI [11]: > 100 µM | GI50 [12]: 29.1 µM | TGI [12]: > 100 µM | GI50 [13]: 35.5 µM | TGI [13]: > 100 µM | GI50 [14]: 27.7 µM | TGI [14]: > 100 µM | GI50 [51]: 1.95 µM | TGI [51]: 5.72 µM | GI50 [15]: 32.5 µM | TGI [15]: > 100 µM | GI50 [16]: 15.2 µM | TGI [16]: > 100 µM | TGI [17]: > 100 µM | GI50 [18]: 6.25 µM | TGI [18]: > 100 µM | GI50 [19]: 3.95 µM | TGI [19]: 18.3 µM | GI50 [20]: 5.04 µM | TGI [20]: > 100 µM | GI50 [21]: 4.85 µM | TGI [21]: 32.3 µM | GI50 [22]: 6.49 µM | TGI [22]: > 100 µM | GI50 [52]: 7.22 µM | TGI [52]: > 100 µM | GI50 [53]: 14.5 µM | TGI [53]: > 100 µM | GI50 [23]: 5.89 µM | TGI [23]: > 100 µM | GI50 [24]: 19.4 µM | TGI [24]: > 100 µM | GI50 [25]: 3.66 µM | TGI [25]: > 100 µM | GI50 [26]: 4.3 µM | TGI [26]: > 100 µM | GI50 [27]: 12.4 µM | TGI [27]: > 100 µM | GI50 [28]: 17.1 µM | TGI [28]: > 100 µM | GI50 [54]: 4.11 µM | TGI [54]: > 100 µM | GI50 [29]: 5.25 µM | TGI [29]: > 100 µM | GI50 [30]: 55.4 µM | TGI [30]: > 100 µM | GI50 [55]: 9.02 µM | TGI [55]: 46.2 µM | GI50 [31]: 5.37 µM | TGI [31]: > 100 µM | GI50 [32]: 14.3 µM | TGI [32]: > 100 µM | GI50 [33]: 5.96 µM | TGI [33]: 32.4 µM | GI50 [56]: 3.78 µM | TGI [56]: > 100 µM | GI50 [34]: 4.8 µM | TGI [34]: 60.9 µM | GI50 [35]: 19.9 µM | TGI [35]: > 100 µM | GI50 [36]: 4.68 µM | TGI [36]: 32.9 µM | GI50 [37]: 6.6 µM | TGI [37]: > 100 µM | GI50 [38]: 4.07 µM | TGI [38]: 32.8 µM | GI50 [39]: 10 µM | TGI [39]: > 100 µM | GI50 [40]: 8.82 µM | TGI [40]: > 100 µM | GI50 [57]: 17.5 µM | TGI [57]: > 100 µM | GI50 [42]: 9.25 µM | TGI [42]: > 100 µM | GI50 [43]: 4.46 µM | TGI [43]: > 100 µM | GI50 [58]: 5.64 µM | TGI [58]: > 100 µM | GI50 [44]: 3.34 µM | TGI [44]: 30.3 µM | GI50 [45]: 17 µM | TGI [45]: > 100 µM | GI50 [46]: 41.1 µM | TGI [46]: > 100 µM | GI50 [47]: 17.7 µM | TGI [47]: > 100 µM | GI50 [48]: 7.02 µM | TGI [48]: > 100 µM | GI50 [49]: 18.8 µM | TGI [49]: > 100 µM | GI50 [59]: 2.95 µM | TGI [59]: 15.1 µM
